pIC50: −log10 of the molar value.
System: 565726-208-R1-J5-PDC complex spheroids, growth inhibition
Experiment: Anticancer human tumor 565726-208-R1-J5-PDC patient-derived pancreatic adenocarcinoma cell line growth inhibition [RAS]
Settings: for pIC50: curve of first compound; for viability, T/C: stronger effect = lower value
From the text: RAS pathway inhibitors in Combinations in Complex Spheroids
A high-throughput screen of multi-cell type tumor spheroids was designed to identify active combinations of RAS pathway inhibitors and targeted small molecules. Complex spheroids include a stromal component modeled by human endothelial cells (HUVEC) and fibroblasts modeled by human mesenchymal stem cells (MSCs). The concentration ranges selected for each drug and investigational agent were based upon clinically achievable concentrations if the clinical Cmax of the agent was known.
Compounds. The drugs and investigational agents: abemaciclib (NSC768073), cobimetinib (NSC768068), divarasib (GDC6063, NSC841802), docetaxel (NSC628503), GDC-1971 (RLY-1971, NSC841576), gemcitabine (NSC613327), inavolisib (NSC800729), ipatasertib (NSC767898), KB-0742 (NSC834161), MRTX-1133 (NSC836407), osimertinib (NSC779217), RMC-4630 (NSC839698), RMC-6236 (NSC851965), RMC-6291 (NSC852671), Ro-3306 (NSC812927), sapanisertib (NSC764658), SN-38 (NSC673596), staurosporine (NSC755774), SY5609 (NSC837396), and tovorafenib (DAY101, NSC766906), were obtained from the National Cancer Institute (NCI) Developmental Therapeutics Program Chemical Repository. The FDA-approved anticancer drug set is available from the NCI Developmental Therapeutics Program. […] The stock solutions were prepared in dimethyl sulfoxide (DMSO, Sigma-Aldrich, St. Louis, MO, cat. D2650) at 800-fold the tested concentration and stored at -70 degrees C prior to their use. All drugs and investigational agents were tested over a range starting from a high concentration at or near the clinical Cmax and decreasing in half-log increments. If the clinical Cmax for an agent had not been determined, the highest concentration tested was 10 microM.
Cell Culture. All cells were maintained in an incubator at 37 degrees C and 5% CO2 with 95% humidity. The PDC lines were cultured according to standard operating procedures established by the NCI PDMR. All PDCs were thawed and cultured in Matrigel-coated flasks prepared with a working solution of 1X Ham's F-12 nutrient mix, without supplementation (Invitrogen, Waltham, MA, cat. 11765054), 100 U/mL penicillin-streptomycin (Invitrogen, cat. 15140122), and 2.5% Matrigel (Corning Inc., Corning, NY, cat. 354248) for the first three passages. The 362531-283-R-J2-PDC and 782815-120-R-J1-PDC lines were cultured in 6C/Colon 1B media, which includes advanced DMEM/F-12 (Thermo Fisher Scientific, cat. 12634028), 10 mM HEPES (Thermo Fisher Scientific, cat. 15630080), 1X GlutaMAX supplement (Thermo Fisher Scientific, cat. 35050061), 0.1 mg/mL primocin (InvivoGen, San Diego, CA, cat. ant-pm-2), 10% defined fetal bovine serum, heat inactivated (HyClone Laboratories Inc., Logan, UT, cat. SH30070.03HI), 50% L-WRN conditioned media (ATCC, cat. CRL-3276), 1.25 mM N-Acetyl-L-cysteine (Sigma-Aldrich, cat. A9165), 10 mM nicotinamide (Sigma-Aldrich, cat. N0636), 1X B-27 supplement (Thermo Fisher Scientific, cat. 17504044), 1X N-2 supplement (Thermo Fisher Scientific, cat. 17502048), 50 ng/mL human EGF (Thermo Fisher Scientific, cat. PHG0311), and 10 microM Y-27632 dihydrochloride (Tocris Bioscience, cat. 1254). The K12877-001-R-J1-PDC line was cultured in 6I media, which includes all 6C/Colon 1B media plus 10 ng/mL human FGF-10 (PeproTech, cat. 100-26), 1 ng/mL human FGF-2 (PeproTech, cat. 100-18B), 1 µM prostaglandin E2 (Tocris Bioscience, cat. 2296), […] hydrocortisone (Sigma-Aldrich, cat. H4001), and […] bovine insulin (Sigma-Aldrich, cat. I6634). The K86415-001-R-J1-PDC line was cultured in 6D media, which includes all 6C/Colon 1B media components minus the L-WRN conditioned media. The 485176-168-R4-J1-PDC was cultured in PANC media, which includes all 6C/Colon 1B media plus 100 ng/mL human FGF-10 (PeproTech, cat. 100-26), 500 nM SB-431542 (Selleckchem, cat. S1067), and 10 nM gastrin (Tocris Bioscience, cat. 3006). […]
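Note: spheroids exposed to compounds for seven days before readout.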
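Throughout, for viability, T/C: 100% = DMSO vehicle control viability.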

C[C@@H](NC(=O)c1ncnc(N)c1Cl)c1ncc(C(=O)Nc2cc(C(F)(F)F)c(Cl)cn2)s1 + C#Cc1c(F)ccc2cc(O)cc(-c3ncc4c(N5CC6CCC(C5)N6)nc(OCC56CCCN5CC(F)C6)nc4c3F)c12
pIC50 (second compound 0.0316 µM): < 5.00
pIC50 (second compound 0.1 µM): < 5.00
pIC50 (second compound 0.316 µM): < 5.00
pIC50 (second compound 1 µM): < 5.00
pIC50 (second compound 3.16 µM): < 5.00
pIC50 (second compound 10 µM): < 5.00
viability, T/C (second compound 0.0316 µM, first compound 0.0316 µM): 114%
viability, T/C (second compound 0.0316 µM, first compound 0.1 µM): 167%
viability, T/C (second compound 0.0316 µM, first compound 0.316 µM): 121%
viability, T/C (second compound 0.0316 µM, first compound 1 µM): 102%
viability, T/C (second compound 0.0316 µM, first compound 3.16 µM): 135%
viability, T/C (second compound 0.0316 µM, first compound 10 µM): 129%
viability, T/C (second compound 0.1 µM, first compound 0.0316 µM): 122%
viability, T/C (second compound 0.1 µM, first compound 0.1 µM): 166%
viability, T/C (second compound 0.1 µM, first compound 0.316 µM): 107%
viability, T/C (second compound 0.1 µM, first compound 1 µM): 108%
viability, T/C (second compound 0.1 µM, first compound 3.16 µM): 116%
viability, T/C (second compound 0.1 µM, first compound 10 µM): 127%
viability, T/C (second compound 0.316 µM, first compound 0.0316 µM): 150%
viability, T/C (second compound 0.316 µM, first compound 0.1 µM): 147%
viability, T/C (second compound 0.316 µM, first compound 0.316 µM): 94.9%
viability, T/C (second compound 0.316 µM, first compound 1 µM): 110%
viability, T/C (second compound 0.316 µM, first compound 3.16 µM): 95.8%
viability, T/C (second compound 0.316 µM, first compound 10 µM): 112%
viability, T/C (second compound 1 µM, first compound 0.0316 µM): 134%
viability, T/C (second compound 1 µM, first compound 0.1 µM): 135%
viability, T/C (second compound 1 µM, first compound 0.316 µM): 92.8%
viability, T/C (second compound 1 µM, first compound 1 µM): 89.6%
viability, T/C (second compound 1 µM, first compound 3.16 µM): 107%
viability, T/C (second compound 1 µM, first compound 10 µM): 105%
viability, T/C (second compound 3.16 µM, first compound 0.0316 µM): 110%
viability, T/C (second compound 3.16 µM, first compound 0.1 µM): 123%
viability, T/C (second compound 3.16 µM, first compound 0.316 µM): 72.8%
viability, T/C (second compound 3.16 µM, first compound 1 µM): 68.3%
viability, T/C (second compound 3.16 µM, first compound 3.16 µM): 65.4%
viability, T/C (second compound 3.16 µM, first compound 10 µM): 102%
viability, T/C (second compound 10 µM, first compound 0.0316 µM): 100%
viability, T/C (second compound 10 µM, first compound 0.1 µM): 102%
viability, T/C (second compound 10 µM, first compound 0.316 µM): 68.4%
viability, T/C (second compound 10 µM, first compound 1 µM): 64.8%
viability, T/C (second compound 10 µM, first compound 3.16 µM): 72.2%
viability, T/C (second compound 10 µM, first compound 10 µM): 72.8%

— PubChem BioAssay AID2060899 (Molecular Pharmacology Branch, DTP, NCI, 2025)
